Data on 19 compounds can be found in patent publication US20260297121A1, “MITHRAMYCIN (MTM) 2’ OXIMES” (University of Kentucky Research Foundation, priority 2023, published 2026).

In one data set the test system is PC3. The data set can be described thus: IC50 in PC3 cells. It is filed as cell-based. To be noted: Homo sapiens, PC-3, read-out: IC50 PC2, Table 2; head prints PC2, text PC3. The procedure:
(§1) Exemplary compounds of the presently-disclosed subject matter were assessed for activity, including clearance, potency, and selectivity. Results from studies are compiled in Tables 2-4.
(§2) Desirable clearance was identified at lower values of mL hr^−1kg^−1 (e.g., about ≤10 mL hr^−1 kg^−1), desirable potency was identified at lower values of IC50 (e.g., about ≤10 nM in TC32 cells), and desired selectivity was identified at higher ratios of IC50 in PC3/IC50 in TC32 (e.g. about >10).

A further data set relates to TC32 cells. The data set can be described thus: Potency IC50 in TC32 cells and selectivity. It is filed as cell-based. To be noted: Homo sapiens, TC-32, Table 2, read-out: IC50 TC32. The procedure: as §1, §2
A short description of a further data set: log P. It is filed as physicochemical.

As for `COc1cc2cc(C(=O)NCCON=C([C@@H](O)[C@@H](C)O)[C@@H](OC)[C@@H]3Cc4cc5cc(O[C@H]6C[C@@H](O[C@H]7C[C@@H](O)[C@H](O)[C@@H](C)O7)[C@H](O)[C@@H](C)O6)c(C)c(O)c5c(O)c4C(=O)[C@H]3O[C@H]3C[C@@H](O[C@H]4C[C@@H](O[C@H]5C[C@](C)(O)[C@H](O)[C@@H](C)O5)[C@@H](O)[C@@H](C)O4)[C@H](O)[C@@H](C)O3)[nH]c2cc1OC` [YL-B158], the results for the IC50 in the data set with PC3 and with TC32 cells were 300 nM and 35.6 nM, respectively. In addition, the logP in “log P” (Table 2) was 1.28.
With `COC(C(=NOCC(=O)Nc1cccc2cnccc12)C(O)C(C)O)C1Cc2cc3cc(OC4CC(OC5CC(O)C(O)C(C)O5)C(O)C(C)O4)c(C)c(O)c3c(O)c2C(=O)C1OC1CC(OC2CC(OC3CC(C)(O)C(O)C(C)O3)C(O)C(C)O2)C(O)C(C)O1` (centres unmarked) [YL-B160], the IC50 stood at 1130 nM in the data set with PC3 and 86.1 nM in the data set with TC32 cells. For the same compound, the logP in “log P” (Table 2) amounted to 1.3.
The matching figures for `CO[C@H](C(=NOCCNC(=O)c1nnc2nc(C)cc(C)n12)[C@@H](O)[C@@H](C)O)[C@@H]1Cc2cc3cc(O[C@H]4C[C@@H](O[C@H]5C[C@@H](O)[C@H](O)[C@@H](C)O5)[C@H](O)[C@@H](C)O4)c(C)c(O)c3c(O)c2C(=O)[C@H]1O[C@H]1C[C@@H](O[C@H]2C[C@@H](O[C@H]3C[C@](C)(O)[C@H](O)[C@@H](C)O3)[C@@H](O)[C@@H](C)O2)[C@H](O)[C@@H](C)O1` [YL-B162]: 3000 nM, 2840 nM and -0.56.
With `COc1ccc2[nH]c(C(=O)NCCON=C([C@@H](O)[C@@H](C)O)[C@@H](OC)[C@@H]3Cc4cc5cc(O[C@H]6C[C@@H](O[C@H]7C[C@@H](O)[C@H](O)[C@@H](C)O7)[C@H](O)[C@@H](C)O6)c(C)c(O)c5c(O)c4C(=O)[C@H]3O[C@H]3C[C@@H](O[C@H]4C[C@@H](O[C@H]5C[C@](C)(O)[C@H](O)[C@@H](C)O5)[C@@H](O)[C@@H](C)O4)[C@H](O)[C@@H](C)O3)cc2c1` [YL-B166], the IC50 came out at 32.3 nM in the data set on PC3 and 2.33 nM in the data set on TC32 cells. The lipophilicity (logP) in the data set “log P” (Table 2) worked out at 1.56.
In the case of `CO[C@H](C(=NOCCNC(=O)c1cc2cc(Cl)cc(Cl)c2[nH]1)[C@@H](O)[C@@H](C)O)[C@@H]1Cc2cc3cc(O[C@H]4C[C@@H](O[C@H]5C[C@@H](O)[C@H](O)[C@@H](C)O5)[C@H](O)[C@@H](C)O4)c(C)c(O)c3c(O)c2C(=O)[C@H]1O[C@H]1C[C@@H](O[C@H]2C[C@@H](O[C@H]3C[C@](C)(O)[C@H](O)[C@@H](C)O3)[C@@H](O)[C@@H](C)O2)[C@H](O)[C@@H](C)O1` [YL-B167], the concentration for half-maximal inhibition (IC50) with PC3 worked out at 48.4 nM; in the data set on TC32 cells, 15.1 nM. The compound further showed a logP in the data set “log P” (Table 2) of 2.83.
For `COC(C(=NOCCNC(=O)c1cc2cc(O)ccc2[nH]1)C(O)C(C)O)C1Cc2cc3cc(OC4CC(OC5CC(O)C(O)C(C)O5)C(O)C(C)O4)c(C)c(O)c3c(O)c2C(=O)C1OC1CC(OC2CC(OC3CC(C)(O)C(O)C(C)O3)C(O)C(C)O2)C(O)C(C)O1` (centres unmarked) [YL-B170], the IC50 was found to be 365 nM with PC3 and 70.7 nM with TC32 cells. In “log P” (Table 2), this compound yielded a logP of 1.02.
In the same order, the values of `COC(C(=NOCCNC(=O)c1cc2cc(C(F)(F)F)ccc2[nH]1)C(O)C(C)O)C1Cc2cc3cc(OC4CC(OC5CC(O)C(O)C(C)O5)C(O)C(C)O4)c(C)c(O)c3c(O)c2C(=O)C1OC1CC(OC2CC(OC3CC(C)(O)C(O)C(C)O3)C(O)C(C)O2)C(O)C(C)O1` (centres unmarked) [YL-B175] are 1.5 nM, 1.2 nM and 2.54.
In the case of `COC(C(=NOCCNC(=O)c1cc2c(=O)n(C)c(=O)n(C)c2[nH]1)C(O)C(C)O)C1Cc2cc3cc(OC4CC(OC5CC(O)C(O)C(C)O5)C(O)C(C)O4)c(C)c(O)c3c(O)c2C(=O)C1OC1CC(OC2CC(OC3CC(C)(O)C(O)C(C)O3)C(O)C(C)O2)C(O)C(C)O1` (centres unmarked) [YL-B179], the IC50 in the data set with PC3 came out at 3000 nM; in the data set on TC32 cells, 679 nM. Further, the logP in the data set “log P” (Table 2) was -0.02.
Consider `CO[C@H](C(=NOCCNC(=O)c1cc2cc(-c3cnn(C)c3)ccc2[nH]1)[C@@H](O)[C@@H](C)O)[C@@H]1Cc2cc3cc(O[C@H]4C[C@@H](O[C@H]5C[C@@H](O)[C@H](O)[C@@H](C)O5)[C@H](O)[C@@H](C)O4)c(C)c(O)c3c(O)c2C(=O)[C@H]1O[C@H]1C[C@@H](O[C@H]2C[C@@H](O[C@H]3C[C@](C)(O)[C@H](O)[C@@H](C)O3)[C@@H](O)[C@@H](C)O2)[C@H](O)[C@@H](C)O1` [YL-C20], for which the 50% inhibitory concentration (IC50) is 1020 nM in the data set with PC3 and 69.8 nM in the data set on TC32 cells. This compound yielded a logP in “log P” (Table 2) of 2.1.
As for `CO[C@H](C(=NOCC(=O)N[C@@H](Cc1c[nH]c2ccccc12)C(=O)Nc1ccc2scnc2c1)[C@@H](O)[C@@H](C)O)[C@@H]1Cc2cc3cc(O[C@H]4C[C@@H](O[C@H]5C[C@@H](O)[C@H](O)[C@@H](C)O5)[C@H](O)[C@@H](C)O4)c(C)c(O)c3c(O)c2C(=O)[C@H]1O[C@H]1C[C@@H](O[C@H]2C[C@@H](O[C@H]3C[C@](C)(O)[C@H](O)[C@@H](C)O3)[C@@H](O)[C@@H](C)O2)[C@H](O)[C@@H](C)O1` [YL-C39], the log partition coefficient (log P) in “log P” (Table 2) is recorded as 2.56.
On to `CO[C@H](C(=NOCc1ccc2scnc2c1)[C@@H](O)[C@@H](C)O)[C@@H]1Cc2cc3cc(O[C@H]4C[C@@H](O[C@H]5C[C@@H](O)[C@H](O)[C@@H](C)O5)[C@H](O)[C@@H](C)O4)c(C)c(O)c3c(O)c2C(=O)[C@H]1O[C@H]1C[C@@H](O[C@H]2C[C@@H](O[C@H]3C[C@](C)(O)[C@H](O)[C@@H](C)O3)[C@@H](O)[C@@H](C)O2)[C@H](O)[C@@H](C)O1` [YL-C52], for which the 50% inhibitory concentration (IC50) in the data set on PC3 was determined as 8.07 nM; in the data set with TC32 cells, 6.41 nM. Besides, the log partition coefficient (logP) in “log P” (Table 2) was found to be 1.87.
Regarding `CO[C@H](C(=NOC[C@@H](Cc1c[nH]c2ccccc12)NC(=O)c1ccc2scnc2c1)[C@@H](O)[C@@H](C)O)[C@@H]1Cc2cc3cc(O[C@H]4C[C@@H](O[C@H]5C[C@@H](O)[C@H](O)[C@@H](C)O5)[C@H](O)[C@@H](C)O4)c(C)c(O)c3c(O)c2C(=O)[C@H]1O[C@H]1C[C@@H](O[C@H]2C[C@@H](O[C@H]3C[C@](C)(O)[C@H](O)[C@@H](C)O3)[C@@H](O)[C@@H](C)O2)[C@H](O)[C@@H](C)O1` [YL-C53], in “log P” (Table 2), the “log P” value is recorded as 3.26.
In the case of `COC(C(=NOCC(Cc1c[nH]c2ccccc12)NC(=O)c1cc2cc(Cl)ccc2[nH]1)C(O)C(C)O)C1Cc2cc3cc(OC4CC(OC5CC(O)C(O)C(C)O5)C(O)C(C)O4)c(C)c(O)c3c(O)c2C(=O)C1OC1CC(OC2CC(OC3CC(C)(O)C(O)C(C)O3)C(O)C(C)O2)C(O)C(C)O1` (centres unmarked) [YL-C54], the log partition coefficient (log P) in “log P” (Table 2) is listed as 4.34.
Turning to `COC(C(=NOCC(Cc1c[nH]c2ccccc12)NC(=O)c1ccc2scnc2c1)C(O)C(C)O)C1Cc2cc3cc(OC4CC(OC5CC(O)C(O)C(C)O5)C(O)C(C)O4)c(C)c(O)c3c(O)c2C(=O)C1OC1CC(OC2CC(OC3CC(C)(O)C(O)C(C)O3)C(O)C(C)O2)C(O)C(C)O1` (centres unmarked) [YL-C55], the “log P” value in the data set “log P” (Table 2) is 3.26.
As for `CO[C@H](C(=NOCCNC(=O)c1ccc2scnc2c1)[C@@H](O)[C@@H](C)O)[C@@H]1Cc2cc3cc(O[C@H]4C[C@@H](O[C@H]5C[C@@H](O)[C@H](O)[C@@H](C)O5)[C@H](O)[C@@H](C)O4)c(C)c(O)c3c(O)c2C(=O)[C@H]1O[C@H]1C[C@@H](O[C@H]2C[C@@H](O[C@H]3C[C@](C)(O)[C@H](O)[C@@H](C)O3)[C@@H](O)[C@@H](C)O2)[C@H](O)[C@@H](C)O1` [YL-C61], the figures for the concentration for half-maximal inhibition (IC50) in the data set on PC3 and in the data set with TC32 cells were 214 nM and 64.3 nM, respectively. In addition, in “log P” (Table 2), the logP came out at 1.12.
As to `CO[C@H](C(=NOCCNC(=O)c1c(-c2ccc(Cl)cc2)c2cc(Cl)ccc2n1C)[C@@H](O)[C@@H](C)O)[C@@H]1Cc2cc3cc(O[C@H]4C[C@@H](O[C@H]5C[C@@H](O)[C@H](O)[C@@H](C)O5)[C@H](O)[C@@H](C)O4)c(C)c(O)c3c(O)c2C(=O)[C@H]1O[C@H]1C[C@@H](O[C@H]2C[C@@H](O[C@H]3C[C@](C)(O)[C@H](O)[C@@H](C)O3)[C@@H](O)[C@@H](C)O2)[C@H](O)[C@@H](C)O1` [YL-C98], the “log P” value in the data set “log P” (Table 2) amounted to 4.6.
Regarding `COC(C(=NOCCNC(=O)c1c(-c2ccc(Cl)cc2)c2cc(Cl)ccc2n1CC(C)C)C(O)C(C)O)C1Cc2cc3cc(OC4CC(OC5CC(O)C(O)C(C)O5)C(O)C(C)O4)c(C)c(O)c3c(O)c2C(=O)C1OC1CC(OC2CC(OC3CC(C)(O)C(O)C(C)O3)C(O)C(C)O2)C(O)C(C)O1` (centres unmarked) [YL-C100], in the data set “log P” (Table 2), the “log P” value is 6.21.
In the case of `COC(C(=NOCCNC(=O)c1[nH]c2ccc(Cl)cc2c1-c1ccc(F)c(Cl)c1)C(O)C(C)O)C1Cc2cc3cc(OC4CC(OC5CC(O)C(O)C(C)O5)C(O)C(C)O4)c(C)c(O)c3c(O)c2C(=O)C1OC1CC(OC2CC(OC3CC(C)(O)C(O)C(C)O3)C(O)C(C)O2)C(O)C(C)O1` (centres unmarked) [YL-C116], the “log P” value in “log P” (Table 2) and in “log P” (Table 3) was 4.19 each time.
In the case of `CO[C@H](C(=NOCCNC(=O)c1[nH]c2ccc(Cl)cc2c1C1CC1)[C@@H](O)[C@@H](C)O)[C@@H]1Cc2cc3cc(O[C@H]4C[C@@H](O[C@H]5C[C@@H](O)[C@H](O)[C@@H](C)O5)[C@H](O)[C@@H](C)O4)c(C)c(O)c3c(O)c2C(=O)[C@H]1O[C@H]1C[C@@H](O[C@H]2C[C@@H](O[C@H]3C[C@](C)(O)[C@H](O)[C@@H](C)O3)[C@@H](O)[C@@H](C)O2)[C@H](O)[C@@H](C)O1` [YL-C124], the IC50 in the data set with PC3 was 169 nM; in the data set with TC32 cells, 22.4 nM. Also, in the data set “log P” (Table 2), the logP was 3.06.

The IC50 is the concentration that inhibits the measured activity by half. Usually logP stands for the decadic logarithm of the partition coefficient of the neutral form, usually between octanol and water. In general, log P refers to a log measure of how a compound divides between an organic and an aqueous phase. A low value points to a more hydrophilic compound.
